Data on 38 compounds can be found in US11109611B2, “Compositions and methods that modulate digestibility in a companion animal” (Societe des Produits Nestle SA, priority 2016, dated 2021).

Common to all, as to type: in vivo, canine
Common to all, as to details: plasma after overnight fasting in fifth week of feeding, correlations with P value < 0.01

Assay [1] relates to Canines. The experiment in a line: Metabolite correlations with organic matter digestibility (plasma metabolomics). The method, then:
(§1) 83 Canines were all fed Diet A for 5 weeks, followed by a 1 week transition period and then 15 were fed Diet B for 5 weeks as shown in the Table 1 below. Plasma samples were taken after overnight fasting using EDTA vacutainer tubes during the fifth week of feeding of each diet. After centrifugation, plasma was aliquoted into cryovials and frozen at −80° C.
(§2) Metabolomic analysis was carried out using the following methods by Metabolon Inc. Samples were extracted and split into equal parts for analysis on GC/MS and LC/MS/MS platforms. Proprietary software was used to match ions to an in-house library of standards for metabolite identification and for metabolite quantitation by peak area integration by Metabolon Inc. Mass and retention index are provided in the following tables such that each metabolite can be uniquely identified and individually distinguished.
(§3) At the time of analysis, samples were thawed and extracts prepared to remove protein, dislodge small molecules bound to protein or physically trapped in the precipitated protein matrix, and recover a wide range of chemically diverse metabolites. A separate aliquot of each experimental plasma sample was taken then pooled for the creation of “Client Matrix” (CMTRX) samples. These CMTRX samples were injected throughout the platform run and served as technical replicates, allowing variability in the quantitation of all consistently detected biochemicals to be determined and overall process variability and platform performance to be monitored. Extracts of all experimental and CMTRX samples were split for analysis on the GC/MS and LC/MS/MS platforms.
(§4) The CMTRX technical replicate samples were treated independently throughout the process as if they were client study samples. All process samples (CMTRX and Grob test mixtures of organic components used to assess GC column performance, process blanks, etc.) were spaced evenly among the injections for each day and all client samples were randomly distributed throughout each day's run. Data were collected over multiple platform run days and thus ‘block normalized’ by calculating the median values for each run-day block for each individual compound. […] Missing values (if any) were assumed to be below the level of detection for that biochemical with the instrumentation used and were imputed with the observed minimum for that particular biochemical.
(§5) A number of internal standards were added to each experimental and process standard sample just prior to injection into the mass spectrometers.
Metabolite correlations with organic matter digestibility were determined based on plasma metabolomics (Table 2). […] The metabolite compositions of the two different diets were determined to identify relative levels of specific compounds.

Assay [2] relates to Canines. The assay is described as follows: Metabolite correlations with dry matter digestibility (plasma metabolomics). On the procedure:
as §1, §2, §3, §4, §5
Metabolite correlations with dry matter digestibility were determined based on plasma metabolomics (Table 6). […] Feeding different levels of these compounds (diet B vs diet A; Table 7), and noting changes in dry matter digestibility (Table 8), served as a validation model. The metabolite compositions of the two different diets were determined to identify relative levels of specific compounds.

Assay [3] relates to Canines. The assay is described as follows: Metabolite correlations with fiber digestibility (plasma metabolomics). On the procedure: as §1, §2, §3, §4
A number of internal standards were added to each experimental and process standard sample just prior to injection into the mass spectrometers. A measure of the platform variability (7%) was determined by calculating the median relative standard deviation (RSD) for these internal standards. Because these standards are added to the samples immediately prior to injection into the instrument, this value reflects instrument variation. In addition, the median relative standard deviation (RSD) for the biochemicals that were consistently measured in the CMTRX represents the total variability within the process for the actual experimental samples and the variability in quantitation of the endogenous metabolites within these samples (12%).
589 total metabolites were detected in plasma. […]
Metabolite correlations with fiber digestibility were determined based on plasma metabolomics (Table 10). […] The metabolite compositions of the two different diets were determined in order to identify relative levels of specific compounds.

With `O=C(O)C1CCCCN1` (centres unmarked) [pipecolate], the “Correlation with organic matter digestibility” value in the assay with Canines [1] is given as 0.415. Besides, in the assay on Canines [2], the “Correlation with dry matter digestibility” value came out at 0.3661.

For `CCCCC/C=C\C/C=C\C/C=C\C/C=C\CCCCCC(=O)O` [adrenate (22:4n6)], in the assay with Canines [1], the “Correlation with organic matter digestibility” value is 0.4225. Moreover, the “Correlation with dry matter digestibility” value in the assay on Canines [2] amounted to 0.366.

Consider `CCCCC/C=C\C/C=C\CCCCCCCC(=O)O` [linoleate (18:2n6)], for which the “Correlation with organic matter digestibility” value in the assay on Canines [1] came out at 0.287.

arabonate: the “Correlation with organic matter digestibility” value in the assay with Canines [1] is listed as −0.3117. The “Correlation with dry matter digestibility” value with Canines [2] was −0.3013.

Regarding `N[C@@H](CCC(=O)N[C@@H](CSSC[C@H](N)C(=O)O)C(=O)NCC(=O)O)C(=O)O` [cysteine-glutathione disulfide], the “Correlation with organic matter digestibility” value in the assay with Canines [1] was −0.5693. Moreover, the “Correlation with dry matter digestibility” value in the assay with Canines [2] is −0.5458.

Turning to `OC[C@@H](O)[C@@H](O)[C@@H](O)CO` [ribitol], the “Correlation with fiber digestibility” value in the assay with Canines [3] is −0.3122.

Take `CCCCCC/C=C\CCCCCCCC(=O)O` [palmitoleate (16:1n7)]: the “Correlation with organic matter digestibility” value in the assay on Canines [1] was 0.3097. Also, the “Correlation with dry matter digestibility” value with Canines [2] is given as 0.3089.

For the compound `CCCCCCCCCCCCCCCCC(=O)OC[C@@H](O)COP(=O)(O)OCCN` [1-heptadecanoylglycerophosphoethanolamine], in the assay on Canines [3], the “Correlation with fiber digestibility” value is on record as −0.4181. Besides, the “Correlation with organic matter digestibility” value in the assay on Canines [1] is reported as −0.4779. For the same compound, the “Correlation with dry matter digestibility” value with Canines [2] is on record as −0.4635.

eicosenoate (20:1n9 or 11): the “Correlation with organic matter digestibility” value in the assay on Canines [1] is on record as 0.4051. The “Correlation with dry matter digestibility” value in the assay with Canines [2] is recorded as 0.3674.

For `CCCCCCCC/C=C\CCCCCCCC(=O)OCC(O)COP(=O)(O)OCCN` (centres unmarked) [1-oleoylglycerophosphoethanolamine], in the assay with Canines [1], the “Correlation with organic matter digestibility” value is listed as −0.4678. Besides, the “Correlation with dry matter digestibility” value in the assay with Canines [2] is −0.4501.

In the case of 1-palmitoylplasmenylethanolamine, the “Correlation with fiber digestibility” value in the assay on Canines [3] is recorded as −0.3651. In addition, the “Correlation with organic matter digestibility” value in the assay on Canines [1] is −0.4149. In the assay with Canines [2], the “Correlation with dry matter digestibility” value is reported as −0.4127.

In the case of campesterol, the “Correlation with organic matter digestibility” value with Canines [1] was −0.3283. For the same compound, the “Correlation with dry matter digestibility” value in the assay on Canines [2] is listed as −0.3101.

threonate: the “Correlation with organic matter digestibility” value in the assay on Canines [1] worked out at 0.3788. Moreover, in the assay on Canines [2], the “Correlation with dry matter digestibility” value is listed as 0.3492.

Turning to `CC/C=C\C/C=C\C/C=C\C/C=C\C/C=C\CCCCCC(=O)O` [docosapentaenoate (n3 DPA; 22:5n3)], in the assay with Canines [1], the “Correlation with organic matter digestibility” value was 0.4157. For the same compound, in the assay on Canines [2], the “Correlation with dry matter digestibility” value stood at 0.3814.

Turning to `CCCCC/C=C\C/C=C\CCCCCCCCCC(=O)O` [dihomo-linoleate (20:2n6)], in the assay with Canines [1], the “Correlation with organic matter digestibility” value is reported as 0.5242. Besides, the “Correlation with dry matter digestibility” value in the assay with Canines [2] is listed as 0.4696.

Regarding `CCCCC/C=C\C/C=C\C/C=C\C/C=C\CCCC(=O)O` [arachidonate (20:4n6)], the “Correlation with organic matter digestibility” value in the assay on Canines [1] is 0.5395. Moreover, the “Correlation with dry matter digestibility” value in the assay with Canines [2] is reported as 0.4779.

In the case of `CCCCCCCCCCCCCCCC(=O)OCC(O)CO` (centres unmarked) [1-palmitoylglycerol (1-monopalmitin)], the “Correlation with fiber digestibility” value in the assay on Canines [3] is reported as −0.3548.

Turning to `CCCCC/C=C\C/C=C\C/C=C\C/C=C\C/C=C\CCC(=O)O` [docosapentaenoate (n6 DPA; 22:5n6)], the “Correlation with organic matter digestibility” value with Canines [1] is 0.4971. Further, in the assay with Canines [2], the “Correlation with dry matter digestibility” value came out at 0.4484.

`CC(C)C(=O)C(=O)O` [3-methyl-2-oxobutyrate]: the “Correlation with organic matter digestibility” value in the assay with Canines [1] amounted to 0.3345. In the assay with Canines [2], the “Correlation with dry matter digestibility” value amounted to 0.3102.

`O=C(O)CO` [glycolate (hydroxyacetate)]: the “Correlation with organic matter digestibility” value in the assay with Canines [1] is 0.3449. Besides, in the assay on Canines [2], the “Correlation with dry matter digestibility” value worked out at 0.3124.

For `O=C(O)C(O)CO` (centres unmarked) [glycerate], the “Correlation with organic matter digestibility” value in the assay on Canines [1] amounted to 0.3968. Further, the “Correlation with dry matter digestibility” value in the assay on Canines [2] was 0.3423.

`C[n+]1cccc(C(=O)[O-])c1` [trigonelline (N′-methylnicotinate)]: the “Correlation with organic matter digestibility” value in the assay with Canines [1] was −0.5801. In addition, the “Correlation with dry matter digestibility” value in the assay with Canines [2] is −0.5297.

With `C[N+]1(C)CCC[C@H]1C(=O)[O-]` [stachydrine], in the assay with Canines [1], the “Correlation with organic matter digestibility” value is reported as −0.3927. Also, the “Correlation with dry matter digestibility” value with Canines [2] is listed as −0.3121.

Consider `CCC(N)C(=O)O` (centres unmarked) [2-aminobutyrate], for which the “Correlation with organic matter digestibility” value with Canines [1] is reported as 0.4586. In addition, the “Correlation with dry matter digestibility” value with Canines [2] is on record as 0.4535.

Take `CCCCCCCCCCCCCCCCCC(=O)O` [stearate (18:0)]: the “Correlation with organic matter digestibility” value in the assay on Canines [1] is reported as 0.2845.

Take `CC(O)CC(=O)O` (centres unmarked) [3-hydroxybutyrate (BHBA)]: in the assay with Canines [1], the “Correlation with organic matter digestibility” value is given as 0.4249. Moreover, in the assay on Canines [2], the “Correlation with dry matter digestibility” value is 0.3858.

In the case of `CCCCCCCCCCCCCCCC(=O)O` [palmitate (16:0)], in the assay on Canines [1], the “Correlation with organic matter digestibility” value was determined as 0.3027. The “Correlation with dry matter digestibility” value with Canines [2] is 0.2862.

Turning to `CC(C)(O)C(=O)O` [2-hydroxyisobutyrate], the “Correlation with organic matter digestibility” value in the assay with Canines [1] worked out at 0.3269. In addition, the “Correlation with dry matter digestibility” value with Canines [2] is given as 0.2975.

Take `Cc1c(C)c2c(c(C)c1O)CC[C@@](C)(CCC[C@H](C)CCC[C@H](C)CCCC(C)C)O2` [alpha-tocopherol]: the “Correlation with fiber digestibility” value in the assay on Canines [3] is recorded as −0.3263.

Take `OC[C@H]1OC[C@H](O)[C@@H](O)[C@@H]1O` [1,5-anhydroglucitol (1,5-AG)]: the “Correlation with organic matter digestibility” value with Canines [1] is reported as −0.2973.

For `CCCCC/C=C\C/C=C\CCCCCCCC(=O)O[C@H](CO)COP(=O)(O)OCCN` [2-linoleoylglycerophosphoethanolamine], the “Correlation with organic matter digestibility” value in the assay on Canines [1] is on record as −0.3461. For the same compound, the “Correlation with dry matter digestibility” value in the assay with Canines [2] is reported as −0.3262.

In the case of `CCCCCCCC/C=C\CCCCCCCC(=O)OC(CO)COP(=O)(O)OCCN` (centres unmarked) [2-oleoylglycerophosphoethanolamine], in the assay with Canines [1], the “Correlation with organic matter digestibility” value is on record as −0.3761. For the same compound, the “Correlation with dry matter digestibility” value in the assay with Canines [2] is −0.3648.

For the compound `CCCCCCCC(=O)O[C@H](CC(=O)O)C[N+](C)(C)C` [octanoylcarnitine], the “Correlation with organic matter digestibility” value in the assay on Canines [1] was found to be 0.3604. Moreover, the “Correlation with dry matter digestibility” value in the assay with Canines [2] came out at 0.3264.

On to `CC(C)(O)CC(=O)O` [beta-hydroxyisovalerate], for which the “Correlation with organic matter digestibility” value in the assay with Canines [1] was determined as 0.3342. Further, in the assay on Canines [2], the “Correlation with dry matter digestibility” value came to 0.2994.

With `OC[C@@H](O)C(O)[C@H](O)CO` [arabitol], the “Correlation with organic matter digestibility” value with Canines [1] is listed as −0.3609. The “Correlation with dry matter digestibility” value in the assay with Canines [2] is on record as −0.369.

Regarding “linolenate [alpha or gamma; (18:3n3 or 6)]”, in the assay with Canines [1], the “Correlation with organic matter digestibility” value turned out to be 0.3932. Besides, the “Correlation with dry matter digestibility” value in the assay on Canines [2] is listed as 0.372.

Take `CCCCC/C=C\C/C=C\CCCCCCCC(=O)OCC(O)COP(=O)(O)OCCN` (centres unmarked) [1-linoleoylglycerophosphoethanolamine]: the “Correlation with organic matter digestibility” value with Canines [1] is given as −0.2924.

Consider dihomo-linolenate (20:3n3 or n6), for which the “Correlation with organic matter digestibility” value in the assay on Canines [1] was found to be 0.4357. Further, the “Correlation with dry matter digestibility” value in the assay on Canines [2] came out at 0.3649.
